Source: publication PMC8218931, “Enhancement of oral bioavailability of quercetin by metabolic inhibitory nanosuspensions compared to conventional nanosuspensions” (Drug Delivery, 2021)
≈ marks a conversion by molar mass, not a printed value.

Assays:
[1] = design: method as in Justino et al., 2004; conditions: rats, single oral 10 mg quercetin/200 g body weight, an hour later; ref Justino et al., 2004; cited from earlier work
[2] = design: method as in Xiao et al., 2005; conditions: rats, radiolabeled quercetin by gavage, free or metabolized; ref Xiao et al., 2005; cited from earlier work
[3] = Solubility of Que in release medium; format: physicochemical; conditions: PBS containing 0.1% (w/v) Tween 80 (pH 7.4)
[4] = design: method as in Xiao et al., 2005; conditions: ref Xiao et al., 2005, cited from earlier work
[5] = design: method as in Bi et al., 2019; conditions: piperine as a bioenhancer; ref Bi et al., 2019; cited from earlier work

O=c1c(O)c(-c2ccc(O)c(O)c2)oc2cc(O)cc(O)c12 [Quercetin, 3,3′,4′,5,7-pentahydroxyflavone]
Quercetin metabolized [1]: 93% | Total quercetin absorbed [2]: 20% | solubility [3]: 30 µg/mL (≈ 99.3 µM) | Solubility in artificial gastric juice ([4]; artificial gastric juice): 5.5 µg/mL (≈ 18.2 µM) | Solubility in artificial intestinal juice ([4]; artificial intestinal juice): 28.9 µg/mL (≈ 95.6 µM) | Solubility in water ([4]; water): about 0.09 μg/mL

O=C(/C=C/C=C/c1ccc2c(c1)OCO2)N1CCCCC1 [piperine, Piperine]
Bioavailability of silybin [5]: 146–181%
